Results taken from ChEMBL document CHEMBL1201862, “PubChem BioAssay data set” (2004).
Calls of active or inactive are those of the source. For most assays here, no stated cut-off is given here; in the data, actives have a measured EC50 and inactives only a lower limit.

Key:
HEK293 = assay: inhibitors of LMP1-driven NF-kB reporter, dose response, cell-based, HEK293, luciferase, cherry-pick (AID 588343); assay type: functional; settings: Homo sapiens
[1] = target: Dual specificity tyrosine-phosphorylation-regulated kinase 1A (Rattus norvegicus, UniProt Q63470); assay type: biochemical, Homo sapiens
BJ [2] = assay: cytotoxicity toward BJ-TERT fibroblasts, dose response, cell-based, RAS-independent, luminescence (AID 1933); assay type: functional; settings: Homo sapiens
BJ [3] = assay: cells; assay type: functional, cell-based, Homo sapiens; settings: Homo sapiens, BJ
BJ [4] = assay: cytotoxicity toward BJ-TERT-LT-ST fibroblasts, dose response, cell-based, RAS-independent, luminescence (AID 1935); assay type: functional; settings: Homo sapiens;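 further: BJ fibroblasts immortalized with TERT plus LT and ST oncogenes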
[5] = cytotoxicity toward DRD oncogenic fibroblasts, dose response, cell-based, non-viral oncogenic, luminescence (AID 1934); assay type: functional; settings: Homo sapiens
BJ [6] = assay: cytotoxicity toward Ras-transformed BJeLR fibroblasts, dose response, cell-based, alamar blue fluorescence, cherrypicked samples (AID 2631); assay type: functional; settings: Homo sapiens;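 further: confirmatory dose-response assay in RAS-dependent BJ fibroblasts engineered with TERT, LT and ST, with cytotoxicity read by fluorescence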
Vero = assay: cells; assay type: functional; settings: Chlorocebus sabaeus
Large T antigen = Large T antigen (Simian virus 40, UniProt P03070); assay type: functional, Betapolyomavirus macacae;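 further: Confirmatory-stage PubChem screen for compounds that inhibit SV40 T antigen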
Chain of Large T antigen (P03070 whole entry): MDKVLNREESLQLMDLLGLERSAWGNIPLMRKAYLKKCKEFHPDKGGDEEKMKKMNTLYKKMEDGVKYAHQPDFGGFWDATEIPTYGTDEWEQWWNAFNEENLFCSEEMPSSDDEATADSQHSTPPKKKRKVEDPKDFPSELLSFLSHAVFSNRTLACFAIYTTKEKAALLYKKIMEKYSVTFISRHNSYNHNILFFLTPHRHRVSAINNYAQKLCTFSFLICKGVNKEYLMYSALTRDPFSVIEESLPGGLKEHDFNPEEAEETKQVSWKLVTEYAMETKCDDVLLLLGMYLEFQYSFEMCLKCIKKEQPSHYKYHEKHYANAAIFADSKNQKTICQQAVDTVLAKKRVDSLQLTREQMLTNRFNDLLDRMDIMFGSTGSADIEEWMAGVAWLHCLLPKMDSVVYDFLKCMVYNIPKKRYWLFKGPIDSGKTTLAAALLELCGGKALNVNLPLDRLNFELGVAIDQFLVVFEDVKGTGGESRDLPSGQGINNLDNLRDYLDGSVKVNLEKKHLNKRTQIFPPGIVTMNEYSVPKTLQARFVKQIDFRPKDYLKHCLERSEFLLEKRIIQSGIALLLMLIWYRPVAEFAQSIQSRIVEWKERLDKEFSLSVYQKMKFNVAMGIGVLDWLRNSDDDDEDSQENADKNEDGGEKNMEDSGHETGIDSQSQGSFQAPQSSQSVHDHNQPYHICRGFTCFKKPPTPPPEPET

[7] = target: T1, Replicative DNA helicase DnaB (Mycobacterium tuberculosis, UniProt P9WMR3); assay: DnaB intein splicing inhibitors, dose response, biochemical, cell-free fluorescence (AID 449749); assay type: functional
T1 sequence (P9WMR3 whole entry): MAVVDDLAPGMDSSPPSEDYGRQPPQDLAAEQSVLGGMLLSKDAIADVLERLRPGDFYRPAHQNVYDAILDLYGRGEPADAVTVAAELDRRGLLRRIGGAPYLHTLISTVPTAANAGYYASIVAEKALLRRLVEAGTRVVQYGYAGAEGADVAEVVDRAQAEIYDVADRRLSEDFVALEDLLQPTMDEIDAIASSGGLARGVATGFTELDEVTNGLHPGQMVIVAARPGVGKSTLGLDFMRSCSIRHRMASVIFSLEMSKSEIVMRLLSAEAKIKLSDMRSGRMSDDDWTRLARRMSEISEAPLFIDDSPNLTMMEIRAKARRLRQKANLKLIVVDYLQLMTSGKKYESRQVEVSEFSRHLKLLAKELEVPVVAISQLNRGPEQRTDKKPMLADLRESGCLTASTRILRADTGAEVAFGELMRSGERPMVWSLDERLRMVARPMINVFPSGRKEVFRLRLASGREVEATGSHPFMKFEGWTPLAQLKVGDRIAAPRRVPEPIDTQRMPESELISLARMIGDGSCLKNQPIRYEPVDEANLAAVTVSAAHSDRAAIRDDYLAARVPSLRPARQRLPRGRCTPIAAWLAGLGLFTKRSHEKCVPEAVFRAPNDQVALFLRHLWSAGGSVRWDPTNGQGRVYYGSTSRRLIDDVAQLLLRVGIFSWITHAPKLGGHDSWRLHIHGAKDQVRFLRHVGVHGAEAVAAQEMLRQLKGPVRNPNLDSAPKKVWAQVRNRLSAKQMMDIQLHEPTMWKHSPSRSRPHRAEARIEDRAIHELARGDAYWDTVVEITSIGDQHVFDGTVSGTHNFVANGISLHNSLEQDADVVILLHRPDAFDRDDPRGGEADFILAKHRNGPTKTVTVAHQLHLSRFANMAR

Protein RecA = target: T2, Protein RecA (Mycobacterium tuberculosis, UniProt P9WHJ3); assay: Fluorescence Cell-Free Homogeneous Dose Retest to Identify Inhibitors of RecA-Intein Splicing Activity. [Related pubchem assays (depositor defined):AID2097, AID2223, AID489010, AID492950]; assay type: functional
T2 sequence (P9WHJ3 whole entry): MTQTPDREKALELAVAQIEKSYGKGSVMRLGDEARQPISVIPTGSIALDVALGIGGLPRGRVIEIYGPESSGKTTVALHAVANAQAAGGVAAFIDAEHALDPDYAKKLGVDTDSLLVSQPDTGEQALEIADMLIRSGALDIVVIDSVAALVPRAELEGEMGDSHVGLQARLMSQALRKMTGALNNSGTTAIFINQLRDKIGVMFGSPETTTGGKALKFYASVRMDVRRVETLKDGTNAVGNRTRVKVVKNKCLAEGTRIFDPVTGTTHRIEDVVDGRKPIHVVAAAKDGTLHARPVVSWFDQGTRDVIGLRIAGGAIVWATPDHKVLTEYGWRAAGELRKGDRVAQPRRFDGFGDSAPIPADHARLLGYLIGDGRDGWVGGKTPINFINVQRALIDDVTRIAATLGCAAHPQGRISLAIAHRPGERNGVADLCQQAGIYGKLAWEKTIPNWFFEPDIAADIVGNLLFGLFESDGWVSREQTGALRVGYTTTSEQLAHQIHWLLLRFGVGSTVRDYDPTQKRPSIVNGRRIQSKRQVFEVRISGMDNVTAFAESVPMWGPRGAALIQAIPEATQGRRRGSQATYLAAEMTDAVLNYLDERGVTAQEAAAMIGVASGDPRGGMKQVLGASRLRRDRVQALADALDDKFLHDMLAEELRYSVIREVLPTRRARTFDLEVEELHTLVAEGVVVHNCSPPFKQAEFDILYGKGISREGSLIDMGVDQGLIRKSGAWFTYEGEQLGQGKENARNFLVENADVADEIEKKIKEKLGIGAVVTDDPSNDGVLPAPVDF

[8] = target: T3, Endoribonuclease toxin MazF (Escherichia coli K-12, UniProt P0AE70); assay: MazF toxin RNase activators, dose response, biochemical, fluorescence, single-stranded RNA substrate, uHTS hits (AID 588481); assay type: functional
T3 sequence (P0AE70 whole entry): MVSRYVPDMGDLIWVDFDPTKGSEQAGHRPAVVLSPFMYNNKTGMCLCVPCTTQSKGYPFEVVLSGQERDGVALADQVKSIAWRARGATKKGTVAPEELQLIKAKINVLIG

[9] = target: T3, Endoribonuclease toxin MazF; assay: fluorescent RNA oligo signal without MazF, dose response, counter-screen for MazEF activator project, biochemical, fluorescence, single-stranded RNase substrate (AID 588502); assay type: functional
[10] = NIH-3T3 fibroblast cytotoxicity, dose response, cytotoxicity control, cell-based, fluorescence, Alamar Blue, secondary assay (AID 2327); assay type: functional;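 further: NIH-3T3 mouse fibroblasts cultured with fluconazole at 8 µg/mL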
[11] = C. albicans growth with fluconazole, confirmation, fluorescence, retest (AID 2467); assay type: functional, cell-based
[12] = inhibitors of intracellular T. cruzi replication, confirmation, NIH3T3 host cells, beta-gal luminescence (AID 2044); assay type: functional, cell-based;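 further: intracellular parasites grown in NIH/3T3 mouse fibroblasts as host cells; luminescent beta-galactosidase reporter signal from transgenic T. cruzi replicating inside host cells; inhibitors lower the luminescence signal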
[13] = target: T4, Serine/threonine-protein phosphatase (Candida dubliniensis (strain CD36 / CBS 7987 / NCPF 3949 / NRRLY-17841) (Yeast), UniProt B9W6M3); assay: calcineurin pathway inhibitors in yeast reporter, dose response, S. cerevisiae, CDRE-lacZ, luminescence, secondary (AID 2388); assay type: functional, cell-based;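 further: yeast reporter cells carrying a calcineurin-responsive lacZ construct stimulated with calcium chloride; luminescent beta-galactosidase reporter signal in whole cells rather than isolated phosphatase activity; potency for inhibition where a drop in reporter signal means calcineurin blockade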
T4 sequence (B9W6M3 whole entry): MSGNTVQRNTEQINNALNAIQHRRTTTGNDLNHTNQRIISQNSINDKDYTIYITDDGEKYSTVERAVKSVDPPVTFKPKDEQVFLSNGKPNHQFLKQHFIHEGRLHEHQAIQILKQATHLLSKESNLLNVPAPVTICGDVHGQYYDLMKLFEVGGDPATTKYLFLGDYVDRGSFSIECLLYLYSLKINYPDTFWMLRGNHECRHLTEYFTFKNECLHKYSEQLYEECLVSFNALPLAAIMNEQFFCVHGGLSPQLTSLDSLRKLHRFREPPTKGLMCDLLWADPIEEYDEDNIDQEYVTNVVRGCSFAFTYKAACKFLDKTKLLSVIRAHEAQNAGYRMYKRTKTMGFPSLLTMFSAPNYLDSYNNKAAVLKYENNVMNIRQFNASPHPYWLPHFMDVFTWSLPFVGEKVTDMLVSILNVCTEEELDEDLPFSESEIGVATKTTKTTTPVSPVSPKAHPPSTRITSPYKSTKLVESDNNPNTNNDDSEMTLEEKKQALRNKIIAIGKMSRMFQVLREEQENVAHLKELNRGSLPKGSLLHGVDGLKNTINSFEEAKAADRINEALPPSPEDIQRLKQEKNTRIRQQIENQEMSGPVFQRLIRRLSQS

[14] = cytotoxicity toward NIH3T3 fibroblasts, dose response, counter-screen, cell-based, ATP luminescence, mouse fibroblasts (AID 2010); assay type: functional;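 further: cells exposed to compound for about 90 hours before reading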
[15] = target: ATP-dependent molecular chaperone HSP82 (Candida albicans (strain WO-1) (Yeast), UniProt C4YTQ8); assay: loss of DOC-induced GRE-beta-galactosidase reporter signal, dose response, Hsp90 inhibitor project, S. cerevisiae, luminescence (AID 2400); assay type: functional, cell-based;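 further: beta-galactosidase luminescence from glucocorticoid response element reporter as proxy for Hsp90 function; inhibitor potency where signal loss means Hsp90 inhibition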
Chain of ATP-dependent molecular chaperone HSP82 (C4YTQ8 whole entry): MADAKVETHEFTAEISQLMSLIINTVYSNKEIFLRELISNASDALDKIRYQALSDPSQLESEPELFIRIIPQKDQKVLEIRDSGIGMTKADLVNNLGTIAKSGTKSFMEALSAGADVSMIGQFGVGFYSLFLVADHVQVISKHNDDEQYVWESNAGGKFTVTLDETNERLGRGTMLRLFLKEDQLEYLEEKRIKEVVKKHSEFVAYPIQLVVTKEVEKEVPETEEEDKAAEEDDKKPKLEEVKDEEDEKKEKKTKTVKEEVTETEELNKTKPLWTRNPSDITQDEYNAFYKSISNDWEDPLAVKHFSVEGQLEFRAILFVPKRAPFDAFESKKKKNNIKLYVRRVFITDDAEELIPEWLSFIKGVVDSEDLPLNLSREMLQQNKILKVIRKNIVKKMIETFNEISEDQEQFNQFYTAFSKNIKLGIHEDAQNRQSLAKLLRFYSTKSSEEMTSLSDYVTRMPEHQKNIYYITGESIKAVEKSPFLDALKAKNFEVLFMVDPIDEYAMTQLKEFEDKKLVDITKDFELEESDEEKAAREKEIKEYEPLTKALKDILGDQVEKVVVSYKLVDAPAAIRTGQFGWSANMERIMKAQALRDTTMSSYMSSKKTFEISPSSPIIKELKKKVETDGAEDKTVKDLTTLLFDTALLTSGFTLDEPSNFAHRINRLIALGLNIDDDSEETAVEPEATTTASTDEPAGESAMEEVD

In the case of `c1ccc2c(-c3ccncc3)c[nH]c2c1`, the AC50 (HEK293) is reported as 144 µM (active) and the AC50 [1] is reported as 2.41 µM (active).
In the case of `C[C@@H]1C=CC(=O)O[C@@H]1c1ccc(C(F)(F)F)cc1`, the EC50 (BJ [2]) is reported as 49.6 µM (active), the EC50 (BJ [3]) is reported as 5.53 µM (active) and the EC50 (BJ [4]) is reported as 12.4 µM (active). The EC50 [5] was 2.27 µM (active) and the EC50 (BJ [6]) was 0.409 µM (active).
With `COCCCNC1=NN=C(c2cc(C)n(Cc3ccco3)c2C)CS1` the EC50 (BJ [6]) was 0.201 µM (active) and the CC50 (Vero) was 2.27 µM (active).
For `COc1cc(C=C2C(=O)c3ccccc3C2=O)ccc1O`, the IC50 (Large T antigen) was 15.1 µM (active), the AC50 [7] was > 380 µM (inactive) and the EC50 (Protein RecA) was 22.9 µM (active). The AC50 [1] was 0.585 µM (active).
With `Cc1ccc(S(=O)(=O)N2CCN(CC(=O)NC(=O)NCc3ccccc3)CC2)cc1C` the EC50 [8] was > 99 µM (inactive) and the EC50 [9] was > 99 µM (inactive).
In the case of `O=C1NC(=O)/C(=C\c2ccc(Br)o2)S1`, the EC50 [10] is reported as 87.3 µM (inconclusive), the EC50 [11] is reported as 1.3 µM (active) and the EC50 [12] is reported as 21.7 µM (active). For the same molecule, the EC50 [13] was > 180 µM (inactive), the EC50 [14] was > 60 µM (not active) and the AC50 [1] was 4.62 µM (active). For the same molecule, the EC50 [15] was > 150 µM (inactive).
